This is an account of results in ChEMBL document CHEMBL3526034 (Drug Metab Dispos, 2013).

Series [1] has as its target CYP2C19 (Homo sapiens, UniProt P33261). In words: Inhibition of CYP2C19 in human liver microsomes using S-mephenytoin as substrate at 100 uM preincubated for 20 mins with substrate prior to initiation of reaction with NADPH by HPLC analysis. The series is classed as ADME. The note with it: probe S-mephenytoin.
Series [2] addresses T1, UDP-glucuronosyltransferase 2B7 (Homo sapiens, UniProt P16662). In words: Inhibition of human recombinant UGT2B7 expressed in supersomes assessed as 7-HFC glucuronidation up to 100 uM by fluoresence analysis. The series is classed as ADME. The note with it: recombinant enzyme.
Series [3] has as its system Hepatocyte. In words: Induction of CYP3A4 mRNA expression in human hepatocytes at 1 to 40 uM after 48 hrs by real time PCR analysis. The class given is ADME, cell-based. (In general: Quantitative PCR measures a nucleic acid by following its amplification.)
For series [4], the target named is CYP3A4 (Homo sapiens, UniProt P08684). In words: Inhibition of CYP3A4 in human liver microsomes using nifedipine as substrate at 100 uM preincubated for 20 mins with substrate prior to initiation of reaction with NADPH by HPLC analysis. The series is classed as ADME. The note with it: probe nifedipine.
Series [5] concerns the target T2, Cytochrome P450 2B6 (Homo sapiens, UniProt P20813).
T2 sequence (P20813 whole entry): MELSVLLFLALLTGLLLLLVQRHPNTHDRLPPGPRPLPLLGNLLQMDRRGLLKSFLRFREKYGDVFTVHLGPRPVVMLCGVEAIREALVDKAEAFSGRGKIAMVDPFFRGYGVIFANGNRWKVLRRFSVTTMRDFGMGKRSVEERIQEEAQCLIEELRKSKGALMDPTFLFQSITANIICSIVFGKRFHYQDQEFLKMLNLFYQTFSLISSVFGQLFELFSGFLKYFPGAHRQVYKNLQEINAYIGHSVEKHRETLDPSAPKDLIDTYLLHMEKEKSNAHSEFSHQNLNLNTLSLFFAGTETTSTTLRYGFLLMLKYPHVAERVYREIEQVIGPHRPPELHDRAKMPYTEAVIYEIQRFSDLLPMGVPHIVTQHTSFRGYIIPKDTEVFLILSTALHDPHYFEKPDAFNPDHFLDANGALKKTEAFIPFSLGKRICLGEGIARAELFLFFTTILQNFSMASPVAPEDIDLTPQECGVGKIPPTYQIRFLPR
In words: Metabolism-dependent inhibition of CYP2B6 in human liver microsomes using bupropion as substrate preincubated for 20 mins with NADPH prior to initiation of reaction with probe substrate by HPLC analysis. The class given is ADME.

For series [6], the target named is Cytochrome P450 2C9 (Homo sapiens, UniProt P11712). In words: Metabolism-dependent inhibition of CYP2C9 in human liver microsomes using diclofenac as substrate preincubated for 20 mins with NADPH prior to initiation of reaction with probe substrate by HPLC analysis. The class given is ADME. A general note: Microsomes from liver hold many membrane-bound enzymes, among them those of drug oxidation.
Cytochrome P450 2C9, sequence (P11712 whole entry): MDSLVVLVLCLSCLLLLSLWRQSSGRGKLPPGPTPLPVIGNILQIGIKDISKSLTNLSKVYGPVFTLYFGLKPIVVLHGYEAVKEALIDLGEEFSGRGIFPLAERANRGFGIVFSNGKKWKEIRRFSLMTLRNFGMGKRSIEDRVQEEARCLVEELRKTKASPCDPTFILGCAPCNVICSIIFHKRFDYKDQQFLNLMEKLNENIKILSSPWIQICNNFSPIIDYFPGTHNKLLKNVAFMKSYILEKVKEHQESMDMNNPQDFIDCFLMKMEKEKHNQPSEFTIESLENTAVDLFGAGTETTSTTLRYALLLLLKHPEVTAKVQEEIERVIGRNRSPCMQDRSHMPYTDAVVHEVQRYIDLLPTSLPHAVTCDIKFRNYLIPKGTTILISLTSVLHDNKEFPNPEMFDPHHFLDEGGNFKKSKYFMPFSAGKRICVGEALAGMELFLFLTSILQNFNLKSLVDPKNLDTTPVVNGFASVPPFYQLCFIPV

In series [7] the target is Solute carrier family 22 member 2 (Homo sapiens, UniProt O15244). In words: Inhibition of human OCT2 expressed in MDCK2 cells using [14C]metformin as substrate at 25 uM by liquid scintillation counting analysis. The series is classed as ADME, cell-based. The conditions noted are these: mdck-ii.
The target of series [8] is MDR1 (P-gp, ABCB1) (Homo sapiens, UniProt P08183). In words: Activity at human MDR1 expressed in MDCK2 cells assessed as apical to basolateral mass balance at 3 uM by liquid scintillation counting analysis in presence of 3 uM P-gp and BCRP inhibitor GF120918. The series is classed as ADME, cell-based, MDCK-II. The note with it: with GF120918 (P-gp and BCRP inhibitor), read-out: Activity.
MDR1 (P-gp, ABCB1), sequence (P08183 whole entry): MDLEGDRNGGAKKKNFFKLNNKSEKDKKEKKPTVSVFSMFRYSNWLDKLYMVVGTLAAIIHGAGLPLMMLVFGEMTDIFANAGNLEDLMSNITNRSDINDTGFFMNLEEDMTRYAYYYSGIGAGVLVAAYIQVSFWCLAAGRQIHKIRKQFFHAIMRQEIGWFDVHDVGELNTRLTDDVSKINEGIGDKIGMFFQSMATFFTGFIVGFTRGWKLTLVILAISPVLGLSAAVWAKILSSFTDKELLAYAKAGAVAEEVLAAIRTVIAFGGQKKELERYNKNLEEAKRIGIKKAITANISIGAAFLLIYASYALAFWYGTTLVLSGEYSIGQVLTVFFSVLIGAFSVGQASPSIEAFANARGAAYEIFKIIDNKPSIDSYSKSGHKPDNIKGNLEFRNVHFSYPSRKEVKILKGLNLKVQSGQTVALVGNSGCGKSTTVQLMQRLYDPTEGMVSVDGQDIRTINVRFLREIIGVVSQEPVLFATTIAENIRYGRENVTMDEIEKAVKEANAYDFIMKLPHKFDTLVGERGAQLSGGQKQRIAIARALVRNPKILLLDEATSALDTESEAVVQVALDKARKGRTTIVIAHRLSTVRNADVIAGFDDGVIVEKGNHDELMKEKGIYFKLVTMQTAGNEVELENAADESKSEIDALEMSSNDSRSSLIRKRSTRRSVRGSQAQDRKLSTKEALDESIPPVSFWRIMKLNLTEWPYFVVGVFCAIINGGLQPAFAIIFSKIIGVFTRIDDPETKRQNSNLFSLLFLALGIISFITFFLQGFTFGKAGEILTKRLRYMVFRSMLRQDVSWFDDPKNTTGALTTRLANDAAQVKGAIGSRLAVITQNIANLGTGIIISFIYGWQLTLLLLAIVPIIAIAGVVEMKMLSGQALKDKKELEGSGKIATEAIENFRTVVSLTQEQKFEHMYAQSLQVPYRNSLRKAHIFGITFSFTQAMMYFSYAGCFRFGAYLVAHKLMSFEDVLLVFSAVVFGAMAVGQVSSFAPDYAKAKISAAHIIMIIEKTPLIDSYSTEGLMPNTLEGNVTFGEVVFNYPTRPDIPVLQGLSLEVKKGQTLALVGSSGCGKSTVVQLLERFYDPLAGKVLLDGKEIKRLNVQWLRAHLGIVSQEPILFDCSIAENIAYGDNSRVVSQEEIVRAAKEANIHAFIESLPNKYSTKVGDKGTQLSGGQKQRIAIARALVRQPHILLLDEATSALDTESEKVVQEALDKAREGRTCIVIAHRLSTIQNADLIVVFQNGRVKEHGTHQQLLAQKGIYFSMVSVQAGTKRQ

The target in series [9] is T3, BCRP (ABCG2) (Homo sapiens, UniProt Q9UNQ0).
T3 sequence (Q9UNQ0 whole entry): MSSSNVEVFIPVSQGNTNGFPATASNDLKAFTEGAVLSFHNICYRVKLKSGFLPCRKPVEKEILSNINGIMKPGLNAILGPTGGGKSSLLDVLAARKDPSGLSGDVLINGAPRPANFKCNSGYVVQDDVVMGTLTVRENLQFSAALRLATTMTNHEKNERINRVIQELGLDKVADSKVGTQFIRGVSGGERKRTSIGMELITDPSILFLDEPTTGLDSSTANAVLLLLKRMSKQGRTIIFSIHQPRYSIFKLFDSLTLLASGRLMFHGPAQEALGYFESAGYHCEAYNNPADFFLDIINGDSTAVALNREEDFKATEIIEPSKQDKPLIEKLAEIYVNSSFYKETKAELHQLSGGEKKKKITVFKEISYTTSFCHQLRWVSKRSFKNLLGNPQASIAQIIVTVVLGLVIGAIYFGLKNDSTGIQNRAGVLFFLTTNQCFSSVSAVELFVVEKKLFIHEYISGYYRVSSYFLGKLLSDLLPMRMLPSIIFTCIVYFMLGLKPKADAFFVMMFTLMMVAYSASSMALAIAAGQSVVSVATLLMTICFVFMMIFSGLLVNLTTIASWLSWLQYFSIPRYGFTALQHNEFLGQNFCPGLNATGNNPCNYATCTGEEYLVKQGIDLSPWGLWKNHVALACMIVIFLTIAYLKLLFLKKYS
In words: Activity at human BCRP expressed in MDCK2 cells assessed as apical to basolateral mass balance at 3 uM by liquid scintillation counting analysis in presence of 3 uM P-gp and BCRP inhibitor GF120918. The series is classed as ADME, cell-based, MDCK-II. The conditions noted are these: with GF120918 (P-gp and BCRP inhibitor), read-out: Activity.

Series [10] has as its target T3, BCRP (ABCG2). In words: Activity at human BCRP expressed in MDCK2 cells assessed as basolateral to apical mass balance at 3 uM by liquid scintillation counting analysis in presence of 3 uM P-gp and BCRP inhibitor GF120918. The class given is ADME, cell-based, MDCK-II. The conditions noted are these: with GF120918 (P-gp and BCRP inhibitor), read-out: Activity.
Series [11] has as its target ATP-dependent translocase ABCB1 (Homo sapiens, UniProt P08183). In words: Inhibition of MDR1 (unknown origin) expressed in MDCK2 cells assessed as basolateral to apical transport of [3H]digoxin at 100 uM after 90 mins by liquid scintillation counting analysis. The class given is ADME, cell-based. The conditions noted are these: mdck-ii, 1.5 h.
Series [12] deals with Liver microsome. In words: Drug metabolism in UDPGA-fortified human liver microsomes assessed as DTG glucuronide metabolite ((2S,3S,4S,5R,6S)-6-((4R,12aS)-9-(2,4-difluorobenzylcarbamoyl)-4-methyl-6,8-dioxo-3,4,6,8,12,12a-hexahydro-2H-[1,3]oxazino[3,2-d]pyrido[1,2-a]pyrazin-7-yloxy)-3,4,5-trihydroxytetrahydro-2H-pyran-2-carboxylic acid) formation at 16 uM treated for 4 hrs by radio-HPLC analysis. The series is classed as ADME.

In series [13] the target is UDP-glucuronosyltransferase 2B4 (Homo sapiens, UniProt P06133). In words: Drug metabolism assessed as UDPGA-fortified human recombinant UGT2B4-mediated DTG glucuronide metabolite ((2S,3S,4S,5R,6S)-6-((4R,12aS)-9-(2,4-difluorobenzylcarbamoyl)-4-methyl-6,8-dioxo-3,4,6,8,12,12a-hexahydro-2H-[1,3]oxazino[3,2-d]pyrido[1,2-a]pyrazin-7-yloxy)-3,4,5-trihydroxytetrahydro-2H-pyran-2-carboxylic acid) formation at 16 uM after 120 mins by radio-HPLC analysis. The series is classed as ADME. The note with it: recombinant enzyme.
UDP-glucuronosyltransferase 2B4, sequence (P06133 whole entry): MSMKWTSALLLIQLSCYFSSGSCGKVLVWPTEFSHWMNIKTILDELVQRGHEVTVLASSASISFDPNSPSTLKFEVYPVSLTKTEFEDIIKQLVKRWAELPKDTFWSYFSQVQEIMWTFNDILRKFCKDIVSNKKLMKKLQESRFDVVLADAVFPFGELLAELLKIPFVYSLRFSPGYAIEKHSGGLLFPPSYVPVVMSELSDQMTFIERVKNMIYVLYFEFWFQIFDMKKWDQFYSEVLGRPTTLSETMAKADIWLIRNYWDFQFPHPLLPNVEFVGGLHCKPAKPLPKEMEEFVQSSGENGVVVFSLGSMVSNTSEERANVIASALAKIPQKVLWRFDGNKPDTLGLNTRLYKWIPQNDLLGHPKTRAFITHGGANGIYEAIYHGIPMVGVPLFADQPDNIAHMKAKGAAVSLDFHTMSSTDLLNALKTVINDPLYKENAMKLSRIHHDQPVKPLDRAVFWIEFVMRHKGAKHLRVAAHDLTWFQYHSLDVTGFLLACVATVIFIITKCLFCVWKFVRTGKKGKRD

Series [14] deals with T1, UDP-glucuronosyltransferase 2B7. In words: Drug metabolism assessed as UDPGA-fortified human recombinant UGT2B7-mediated DTG glucuronide metabolite ((2S,3S,4S,5R,6S)-6-((4R,12aS)-9-(2,4-difluorobenzylcarbamoyl)-4-methyl-6,8-dioxo-3,4,6,8,12,12a-hexahydro-2H-[1,3]oxazino[3,2-d]pyrido[1,2-a]pyrazin-7-yloxy)-3,4,5-trihydroxytetrahydro-2H-pyran-2-carboxylic acid) formation after 120 mins by radio-HPLC analysis. The series is classed as ADME. The note with it: recombinant enzyme.

T1 sequence (P16662 whole entry): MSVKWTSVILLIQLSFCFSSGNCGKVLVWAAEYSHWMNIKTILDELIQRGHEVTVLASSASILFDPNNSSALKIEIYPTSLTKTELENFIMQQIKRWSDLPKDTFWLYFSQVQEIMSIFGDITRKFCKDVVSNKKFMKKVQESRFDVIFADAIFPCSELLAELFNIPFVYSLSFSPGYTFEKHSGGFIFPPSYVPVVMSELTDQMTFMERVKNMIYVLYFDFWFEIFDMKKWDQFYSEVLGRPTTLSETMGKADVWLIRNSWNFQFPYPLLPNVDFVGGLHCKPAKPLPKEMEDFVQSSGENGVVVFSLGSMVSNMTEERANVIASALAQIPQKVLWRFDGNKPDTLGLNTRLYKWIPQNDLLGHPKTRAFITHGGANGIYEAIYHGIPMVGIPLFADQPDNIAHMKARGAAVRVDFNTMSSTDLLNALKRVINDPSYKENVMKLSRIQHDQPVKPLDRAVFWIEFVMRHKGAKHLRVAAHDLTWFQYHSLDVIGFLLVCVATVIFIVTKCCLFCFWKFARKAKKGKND
CYP2C19, sequence (P33261 whole entry): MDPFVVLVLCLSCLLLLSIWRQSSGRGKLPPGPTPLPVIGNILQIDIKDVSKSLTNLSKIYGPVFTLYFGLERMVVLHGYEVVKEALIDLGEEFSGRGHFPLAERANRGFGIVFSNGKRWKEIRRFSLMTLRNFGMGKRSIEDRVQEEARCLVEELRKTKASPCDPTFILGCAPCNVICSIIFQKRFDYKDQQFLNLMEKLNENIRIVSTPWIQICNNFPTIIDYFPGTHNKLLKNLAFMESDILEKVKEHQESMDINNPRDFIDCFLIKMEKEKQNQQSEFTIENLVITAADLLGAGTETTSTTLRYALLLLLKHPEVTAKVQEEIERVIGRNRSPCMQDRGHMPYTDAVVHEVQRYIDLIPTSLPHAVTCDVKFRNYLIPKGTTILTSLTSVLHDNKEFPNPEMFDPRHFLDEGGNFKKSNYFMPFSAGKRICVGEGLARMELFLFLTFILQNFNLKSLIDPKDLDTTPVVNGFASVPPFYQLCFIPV
ATP-dependent translocase ABCB1, sequence (P08183 whole entry): as the sequence (P08183 whole entry) above

On to `C[C@@H]1CCO[C@H]2Cn3cc(C(=O)NCc4ccc(F)cc4F)c(=O)c(O)c3C(=O)N12` [DOLUTEGRAVIR], for which the inhibition at 100 µM in [1] and in [4] was 20% in each case. Besides, the “inhibition (INH)” value is listed as “Not Active” in series [2], 91% in series [7] and 29% in series [11]. Besides, in series [3], the Activity entry is “Toxic”. Moreover, the IC50 in series [5] and in series [6] was > 100 µM throughout. For the same molecule, the results for the recovery at 3 µM in series [8], in series [9] and in [10] were 84%, 81% and 76%, respectively. The Drug metabolism result in series [12] is reported as “metabolite_detected”; in series [13], “metabolite_not_detected”; in [14], “metabolite_not_detected”.

As usually defined, the inhibition is the percentage by which the read-out fell short of the control. Lower therefore signals a weak effect. The term IC50 denotes the concentration that inhibits the measured activity by half.
